Reference: patent US20190192532A1, “COMBINATION THERAPY OF BROMODOMAIN INHIBITORS AND CHECKPOINT BLOCKADE” (DANA-FARBER CANCER INSTITUTE, priority 2015, published 2019)

How the values were obtained:
PD-L1 (CD274) = assay: PD-L1 expression on Eμ-Myc lymphoma cell lines by flow cytometry (MFI) after in vitro treatment; format: cell-based, murine; conditions: for expression of PD-L1 (CD274) on lymphoma cells (MFI): 24 hours in vitro, vs DMSO
Method: (§1) […] lymphoma cells (5×10^5) were incubated in the presence of JQ1, or DMSO, in 500 μL culture media in a 48 well plates (Corning, N.Y.) prior to analysis of PD-L1/L2 expression by flow cytometry. Human RPMI-8226 and L540 cells (5×10^5) were incubated in the presence of JQ1, or DMSO vehicle, in 500 μL culture media in a 48 well plates (Corning, N.Y.). Additionally RPMI-8226 cells were cultured with 100 ng/ML, IFN-γ as a single agent and in combination with JQ1, prior to analysis of PD-L1/L2 expression by flow cytometry.
Cell suspensions were washed once with ice-cold flow cytometry buffer (2% FCS and 0.02% NaN3 in PBS) and resuspended in anti-CD16/32 monoclonal antibody (clone 2.4G2) on ice for 30 minutes to block Fc receptors. Cell suspensions were washed once with ice-cold flow cytometry buffer and stained on ice for 30 minutes with the following conjugated antibodies: anti-mouse CD3 (pacific blue, 1:400, clone 17A2), anti-mouse CD4 (APC, 1:400, clone RM4-5), anti-mouse CD8 (PE-Cy7, 1:400, clone 53-6.7), anti-mouse PD-1 (FITC, 1:400, clone J43), anti-mouse PD-L1 (PE, 1:100, clone MIH5), anti-mouse PD-L2 (Biotin, 1:200, clone TY25), anti-human PD-L1 (PE, 1:200, clone 29E.2A3), or anti-human PD-L2 (Biotin, 1:200, clone 24F.10C12). Biotinylated antibodies were subsequently incubated with Streptavidin-PE-Cy7 (1:1000, catalogue number 25-4317-82) or Streptavidin-Pacific Blue (1:1000, catalogue number 48-4317-82) for 30 minutes on ice. Anti-Armenian Hamster IgG (FITC, 1:400, catalogue number 554011), Mouse IgG2aκ (PE, 1:100, clone RTK2758), Rat IgG2aκ (Biotin, 1:200, clone eBR2a), Mouse IgG2bκ (PE, 1:200, catalogue number 559529), and Mouse IgG2aκ (Biotin, 1:200, clone eBM2a) were used as isotype control antibodies, respectively. All antibodies were purchased from BioLegend (San Diego, Calif.), eBiosciences (San Diego, Calif.), or BD Bioscience (San Diego, Calif.). Cell suspensions were washed once with ice-cold flow cytometry buffer, resuspended in ice-cold flow cytometry buffer containing 7-AAD (1:1000, BD Bioscience) and analyzed by flow cytometry. Data was collected on a LSR Fortessa flow cytometer (BD Biosciences) and analyzed using FlowJo Software, version 10.0.7 (Tree Star).
As described in FIGS. 2A and 2B, JQ1 downregulates the expression of PD-L1 (CD274) on lymphoma cells as determined by flow cytometry analysis. Graphs showing the mean fluorescence intensity (MFI) of PD-L1 on Eμ-Myc lymphoma cell lines (FIG. 2A) ^#4242 and (FIG. 2B) ^#299 over-expressing Bcl-2 following 24 hours treatment in vitro with indicated concentrations of JQ1, or DMSO control are provided. Representative data are presented as mean MFI of cells cultured and analyzed in triplicate±S.E.M. (****p <0.0001, Student's t test).
PD-L1 downregulation following BET inhibition is time-dependent. Flow cytometry analysis of PD-L1 expression on Eμ-Myc lymphoma cell line ^#6066 following treatment in vitro with 500 nM JQ1 or DMSO control for indicated time points was performed.
Chemically distinct bromodomain inhibitors downregulate the expression of PD-L1 (CD274) on lymphoma cells, as shown by flow cytometry. […] Representative data are presented as mean MFI of cells cultured and analyzed in triplicate±S.E.M. (***p<0.001, Student's t test).

Eμ-Myc lymphoma = assay: Survival of mice bearing transplanted Eμ-Myc lymphoma (Kaplan-Meier); format: in vivo, mouse; conditions: 50 mg/kg daily i.p.
Method: (§2) Female C57BL/6 mice were purchased. C57BL/6.Rag2cγ^−/− mice were bred in house. C57BL/6.Rag1^−/− mice were purchased. For transplantation of Eμ-Myc lymphomas in vivo, cohorts of six- to eight-week-old syngeneic mice were inoculated via tail vein injection with 1-4×10^5 Eμ-Myc lymphoma cells. Mice were treated with 50 mg/kg JQ1, reconstituted in 1 part DMSO to 9 parts 10% (w/v) Hydroxypropyl-β-cyclodextrin (HPBCD; Cyclodextrin Technologies Development Inc., Gainesville, Fla.) In sterile water, or DMSO vehicle control. Mice were dosed once daily (5 days/week) via intra-peritoneal (i.p.) injection, commencing three days post-intravenous inoculation, for a total of 5 weeks therapy or until treatment failure. Tumor-bearing C57BL/6 mice were treated with the following monoclonal antibodies via i.p. injection: Anti-4-1-BB (Anti-CD137, 100 μg, 3H3; BioXCell), anti-PD-1 (100 μg, […]; BioXCell), or control immunoglobulin. (cIg, Rat IgG2a, 2A3, 100 μg; BioXCell). Anti-PD-1 mAb was dosed on days 5, 10, 15, and 20 post tumor transplant. Anti-4-1BB mAb was dosed on days 5, 8, and 11 post tumor transplant.
Cohorts of mice on a C57BL/6 background (n=10 per treatment group) were injected intravenously with 1-5×10^5 Eμ-Myc lymphoma cells three days prior to commencement of daily dosing with JQ1 (50 mg/kg), or DMSO vehicle., via i.p. injection. […]

PD-L1 [1] = assay: IFN-γ-inducible PD-L1 expression on multiple myeloma cell line RPMI-8226 by flow cytometry; format: cell-based, human; conditions: RPMI-8226 cells; 500 nM with 100 ng/mL IFN-γ; 24 hours
Method: as §1
(§3) Cell suspensions were washed once with ice-cold flow cytometry buffer (2% FCS and 0.02% NaN3 in PBS) and resuspended in anti-CD16/32 monoclonal antibody (clone 2.4G2) on ice for 30 minutes to block Fc receptors. […] Cell suspensions were washed once with ice-cold flow cytometry buffer, resuspended in ice-cold flow cytometry buffer containing 7-AAD (1:1000, BD Bioscience) and analyzed by flow cytometry. Data was collected on a LSR Fortessa flow cytometer (BD Biosciences) and analyzed using FlowJo Software, version 10.0.7 (Tree Star).
JQ1 treatment downregulates the IFN-γ-inducible expression of PD-L1 on human myeloma cell lines. […] Representative data are presented as mean MFI of cells cultured and analyzed in triplicate=S.E.M. (*p<0.05, Student's t test).

PD-L1 transcript = assay: Quantitative real-time PCR of PD-L1 mRNA in Eμ-Myc lymphoma cell lines; format: cell-based, Mus musculus; conditions: 1000 nM; Eμ-Myc lymphoma #4242 and #299 over-expressing Bcl-2; indicated time points
Method: Eμ-Myc lymphomas cells were cultured in the presence of JQ1, or DMSO, as described above. RNA was extracted from cell pellets using the Nucleospine® RNA extraction kit (Macherey-Nagel, Bethlehem, Pa.) as per the manufacturer's instructions. cDNA was synthesized according to the manufacturer's instructions (Promega, Sydney, NSW). Quantitative PCR analysis of samples was performed on the 7900HT Fast Real-Time PCR System (Applied Biosystems, Mulgrave, VIC, Australia') with SYBR-green ROX mix (Agilent, Mulgrave, VIC, Australia). GAPDH was used as the murine control genes. Primer sequences were: Mus musculus PD-L1 F: […] (SEQ ID NO: 1) R: […] (SEQ ID NO: 2), Mus musculus GAPDH F: […] (SEQ ID NO: 3) R: […] (SEQ ID NO: 4).
Quantitative real-time-PCR (qPCR) analysis of PD-L1 mRNA levels in Eμ-Myc lymphoma cell lines (FIG. 2G) ^#4242 and (FIG. 2H) ^#299 over-expressing Bcl-2 following treatment with 1000 nM JQ1, or DMSO control, was performed at indicated time points. Transcript levels are presented as fold change compared to DMSO. Data are presented as mean fold-change from 3 separate experiments±S.E.M. (**p<0.01, ***p<0.001, ****p<0.0001, Student's t test).

PD-L1 [2] = assay: PD-L1 expression on tumor cells of treated lymphoma-bearing mice by flow cytometry; format: in vivo, mouse
Method: as §3, with “Star). […]” for “Star).”
(§4) A cohort of mice were injected intravenously with 1-5×10^5 Eμ-Myc lymphoma ^#4242 cells and left for 12 days to develop bulky nodal disease. Peripheral lymph nodes were harvested 16 hours following a single dose of JQ1 (50 mg/kg), or DMSO vehicle (n=3 per treatment group) and assessed by flow cytometry. […]
A cohort of mice were injected intravenously with 1-5×10^5 Eμ-Myc lymphoma ^#4242/Bcl-2 cells and treated daily with JQ1 (50 mg/kg), or DMSO vehicle (n=5 per treatment group). At day 18, peripheral blood was obtained and tumor cells were assessed by flow cytometry. […]

PD-L1 [3] = assay: Constitutive PD-L1 expression on Hodgkin lymphoma cell line L540 by flow cytometry; format: cell-based, human; conditions: L540 cells; 24 hours in vitro; indicated concentrations
Method: as §1
as §3, with “Star). […]” for “Star).”

Eμ-Myc lymphoma #299 = assay: Survival of mice bearing Eμ-Myc lymphoma #299 treated with JQ1 plus anti-PD-1 or anti-4-1BB antibody; format: in vivo, mouse; conditions: JQ1 50 mg/kg i.p., 25 doses, combined with 100 μg anti-PD-1 (days 5, 10, 15, 20) or anti-4-1BB (days 5, 8, 11)
Method: as §2
FIGS. 4A and 4B show Kaplan-Meier survival curves representing cohorts of […] (n=6 per treatment group) injected intravenously with 1-5×10^5 Eμ-Myc lymphoma ^#299 cells. […]

PD-L2 (CD273) = assay: PD-L2 expression on tumor cells of treated lymphoma-bearing mice by flow cytometry; format: in vivo, mouse; conditions: single dose 50 mg/kg; peripheral lymph nodes 16 hours after dose; Eμ-Myc lymphoma #4242 in C57BL/6 mice
Method: Cell suspensions were washed once with ice-cold flow cytometry buffer (2% FCS and 0.02% NaN3 in PBS) and resuspended in anti-CD16/32 monoclonal antibody (clone 2.4G2) on ice for 30 minutes to block Fc receptors. Cell suspensions were washed once with ice-cold flow cytometry buffer and stained on ice for 30 minutes with the following conjugated antibodies: anti-mouse CD3 (pacific blue, 1:400, clone 17A2), anti-mouse CD4 (APC, 1:400, clone RM4-5), anti-mouse CD8 (PE-Cy7, 1:400, clone 53-6.7), anti-mouse PD-1 (FITC, 1:400, clone J43), anti-mouse PD-L1 (PE, 1:100, clone MIH5), anti-mouse PD-L2 (Biotin, 1:200, clone TY25), anti-human PD-L1 (PE, 1:200, clone 29E.2A3), or anti-human PD-L2 (Biotin, 1:200, clone 24F.10C12). […] Cell suspensions were washed once with ice-cold flow cytometry buffer, resuspended in ice-cold flow cytometry buffer containing 7-AAD (1:1000, BD Bioscience) and analyzed by flow cytometry. Data was collected on a LSR Fortessa flow cytometer (BD Biosciences) and analyzed using FlowJo Software, version 10.0.7 (Tree Star). […]
as §4

[4] = Eμ-Myc lymphoma cell line #6066, 1 μM

## COc1cc2c(cc1-c1c(C)noc1C)ncc1[nH]c(=O)n([C@H](C)c3ccccn3)c12 [IBET-1.51]
PD-L1 (CD274); [4]
  expression of PD-L1 (CD274) on lymphoma cells (MFI): downregulate

## CCNC(=O)C[C@@H]1N=C(c2ccc(Cl)cc2)c2cc(OC)ccc2-n2c(C)nnc21 [IBET-762]
PD-L1 (CD274); [4]
  expression of PD-L1 (CD274) on lymphoma cells (MFI): downregulate

## Cc1sc2c(c1C)C(c1ccc(Cl)cc1)=N[C@@H](CC(=O)OC(C)(C)C)c1nnc(C)n1-2 [JQ1]
Eμ-Myc lymphoma; C57BL/6.Rag2cγ−/− and C57BL/6.Rag1−/− versus wild type C57BL/6
  survival of JQ1-treated immune deficient mice versus JQ1-treated wild type mice: succumbed to disease significantly earlier
Eμ-Myc lymphoma; immune competent (C57BL/6) and immune deficient (Rag2cγ−/−, Rag1−/−) mice, Eμ-Myc lymphoma #4242 and #299
  survival versus DMSO vehicle: significant survival advantage
PD-L1 [1]
  IFN-γ-inducible expression of PD-L1 (MFI): downregulates
PD-L1 transcript
  PD-L1 mRNA level (fold change compared to DMSO): rapidly downregulates
PD-L1 [2]; 50 mg/kg daily, peripheral blood at day 18, Eμ-Myc lymphoma #4242/Bcl-2 in C57BL/6 mice
  PD-L1 expression on circulating tumor cells (MFI), chronic treatment: express lower levels of PD-L1
PD-L1 [2]; single dose 50 mg/kg, peripheral lymph nodes 16 hours after dose, Eμ-Myc lymphoma #4242 in C57BL/6 mice
  PD-L1 expression on live GFP-positive tumor cells (MFI), acute dose: rapidly downregulates
PD-L1 [3]
  constitutive expression of PD-L1 (MFI): downregulates
PD-L1 (CD274); Eμ-Myc lymphoma #4242 and #299 over-expressing Bcl-2, indicated concentrations
  expression of PD-L1 (CD274) on lymphoma cells (MFI): downregulates
PD-L1 (CD274); Eμ-Myc lymphoma cell line #6066, 500 nM, indicated time points
  time course of PD-L1 downregulation: time-dependent
PD-L1 (CD274); [4]
  expression of PD-L1 (CD274) on lymphoma cells (MFI): downregulate
Eμ-Myc lymphoma #299
  anti-tumor response (survival) in combination therapy: Promotes Curative Anti-Tumor Responses
PD-L2 (CD273)
  PD-L2 expression on live GFP-positive tumor cells (MFI), acute dose: rapidly downregulates

## COc1cc(OC)c2c(=O)[nH]c(-c3cc(C)c(OCCO)c(C)c3)nc2c1 [RVX-208]
PD-L1 (CD274); Eμ-Myc lymphoma cell line #6066, 10 μM
  expression of PD-L1 (CD274) on lymphoma cells (MFI): downregulate

## Cc1sc2c(c1C)C(c1ccc(Cl)cc1)=N[C@@H](CC(=O)Nc1ccc(O)cc1)c1nnc(C)n1-2 [Y803]
PD-L1 (CD274); [4]
  expression of PD-L1 (CD274) on lymphoma cells (MFI): downregulate

## Cc1sc2c(c1C)C(c1ccc(Cl)cc1)=N[C@@H](CC(=O)NCCCCNC(=O)COc1cccc3c1C(=O)N(C1CCC(=O)NC1=O)C3=O)c1nnc(C)n1-2 (some centres unmarked) [dBET1]
PD-L1 (CD274); [4]
  expression of PD-L1 (CD274) on lymphoma cells (MFI): downregulate
